Species on record: Rattus norvegicus
Experiment: Open TG-GATES - Regimen: Single
Type: toxicity, organism-based, Sprague-Dawley
Design: regimen Single, gender Male, age 6 weeks
Conditions: in vivo, po, 20 mg/kg, route gavage, dose level Low; for APTT / Bas / Eos / Fbg / Hb / Ht / Lym / MCH / MCHC / MCV / Mono / Neu / PT / Plat / RBC / Ret / WBC: tissue Blood; for KIDNEY_L / KIDNEY_R / KIDNEY_TOTAL: tissue Kidney; for LIVER: tissue Liver; for A/G / ALP / ALT / AST / BUN / CRE / Ca / Cl / DBIL / GLC / IP / K / LDH / Na / PL / RALB / TBIL / TC / TG / TP / gamma-GTP: tissue Plasma

In the case of `CCc1oc2ccccc2c1C(=O)c1cc(Br)c(O)c(Br)c1` [BENZBROMARONE], the TERMINAL_BW (3 h) is reported as 212.8 g, the APTT (3 h) is reported as 16.3 s and the Bas (3 h) is reported as 0%. The Eos (3 h) was 0.6%, the Fbg (3 h) was 237.6 mg/dL and the Hb (3 h) was 13.8 g/dL. It also gave a Ht (3 h) of 41%, a Lym (3 h) of 81.2% and an MCH (3 h) of 21.7 pg. For the same compound, the MCHC (3 h) was 33.6%, the MCV (3 h) was 64.6 fL and the Mono (3 h) was 8.4%. It also gave a Neu (3 h) of 9.8%, a PT (3 h) of 11.8 s and a Plat (3 h) of 106.4 x10_4/uL. The RBC (3 h) was 634.6 x10_4/ul, the Ret (3 h) was 7.7% and the WBC (3 h) was 91.2 x10_2/uL. The KIDNEY_L (3 h) was 0.9 g, the KIDNEY_R (3 h) was 1 g and the KIDNEY_TOTAL (3 h) was 1.9 g. For the same compound, the LIVER (3 h) was 10.1 g, the A/G (3 h) was 2.3 and the ALP (3 h) was 902 IU/L. The ALT (3 h) was 33.6 IU/L, the AST (3 h) was 62 IU/L and the BUN (3 h) was 11.2 mg/dL. It also gave a CRE (3 h) of 0.6 mg/dL, a Ca (3 h) of 10.7 mg/dL and a Cl (3 h) of 103.4 meq/L. The DBIL (3 h) was 0.034 mg/dL, the GLC (3 h) was 195.4 mg/dL and the IP (3 h) was 9.5 mg/dL. For the same compound, the K (3 h) was 4.8 meq/L, the LDH (3 h) was 81.6 IU/L and the Na (3 h) was 139 meq/L. For the same compound, the PL (3 h) was 147 mg/dL, the RALB (3 h) was 3.9 g/dL and the TBIL (3 h) was 0.3 mg/dL. For the same compound, the TC (3 h) was 79.6 mg/dL, the TG (3 h) was 81.2 mg/dL and the TP (3 h) was 5.6 g/dL. For the same compound, the gamma-GTP (3 h) was 1 IU/L, the TERMINAL_BW (6 h) was 212.2 g and the APTT (6 h) was 16.1 s. For the same compound, the Bas (6 h) was 0%, the Eos (6 h) was 1.2% and the Fbg (6 h) was 228 mg/dL. For the same compound, the Hb (6 h) was 13.8 g/dL, the Ht (6 h) was 41.2% and the Lym (6 h) was 79.4%. It also gave an MCH (6 h) of 21.6 pg, an MCHC (6 h) of 33.5% and an MCV (6 h) of 64.5 fL. The Mono (6 h) was 7%, the Neu (6 h) was 12.6% and the PT (6 h) was 12.1 s. It also gave a Plat (6 h) of 113.8 x10_4/uL, an RBC (6 h) of 639.4 x10_4/ul and a Ret (6 h) of 7.7%. For the same compound, the WBC (6 h) was 111.3 x10_2/uL, the KIDNEY_L (6 h) was 1 g and the KIDNEY_R (6 h) was 1 g. The KIDNEY_TOTAL (6 h) was 2 g, the LIVER (6 h) was 9.9 g and the A/G (6 h) was 2.2. It also gave an ALP (6 h) of 710.4 IU/L, an ALT (6 h) of 28.8 IU/L and an AST (6 h) of 59.4 IU/L. The BUN (6 h) was 11.2 mg/dL, the CRE (6 h) was 0.4 mg/dL and the Ca (6 h) was 10.5 mg/dL. For the same compound, the Cl (6 h) was 103.2 meq/L, the DBIL (6 h) was 0.002 mg/dL and the GLC (6 h) was 183 mg/dL. It also gave an IP (6 h) of 9.6 mg/dL, a K (6 h) of 5.1 meq/L and an LDH (6 h) of 90 IU/L. It also gave a Na (6 h) of 138.2 meq/L, a PL (6 h) of 136.4 mg/dL and an RALB (6 h) of 3.8 g/dL. For the same compound, the TBIL (6 h) was 0.4 mg/dL, the TC (6 h) was 75 mg/dL and the TG (6 h) was 75.4 mg/dL. The TP (6 h) was 5.6 g/dL, the gamma-GTP (6 h) was 1 IU/L and the TERMINAL_BW (9 h) was 210.1 g. The APTT (9 h) was 15.6 s, the Bas (9 h) was 0% and the Eos (9 h) was 1%. It also gave a Fbg (9 h) of 234.6 mg/dL, a Hb (9 h) of 13.8 g/dL and a Ht (9 h) of 40.9%. The Lym (9 h) was 84.2%, the MCH (9 h) was 22.1 pg and the MCHC (9 h) was 33.8%. It also gave an MCV (9 h) of 65.5 fL, a Mono (9 h) of 6.2% and a Neu (9 h) of 8.8%. It also gave a PT (9 h) of 12.2 s, a Plat (9 h) of 113.6 x10_4/uL and an RBC (9 h) of 625.2 x10_4/ul. The Ret (9 h) was 7.6%, the WBC (9 h) was 103.5 x10_2/uL and the KIDNEY_L (9 h) was 1 g. It also gave a KIDNEY_R (9 h) of 1 g, a KIDNEY_TOTAL (9 h) of 1.9 g and an LIVER (9 h) of 9.3 g. The A/G (9 h) was 2.1, the ALP (9 h) was 840.2 IU/L and the ALT (9 h) was 29.6 IU/L. It also gave an AST (9 h) of 60 IU/L, a BUN (9 h) of 10 mg/dL and a CRE (9 h) of 0.5 mg/dL. It also gave a Ca (9 h) of 10.1 mg/dL, a Cl (9 h) of 104.2 meq/L and a DBIL (9 h) of 0.008 mg/dL. It also gave a GLC (9 h) of 194.4 mg/dL, an IP (9 h) of 10.5 mg/dL and a K (9 h) of 4.8 meq/L. It also gave an LDH (9 h) of 86.6 IU/L, a Na (9 h) of 138.4 meq/L and a PL (9 h) of 119.4 mg/dL. It also gave an RALB (9 h) of 3.8 g/dL, a TBIL (9 h) of 0.4 mg/dL and a TC (9 h) of 67.8 mg/dL. The TG (9 h) was 44 mg/dL, the TP (9 h) was 5.7 g/dL and the gamma-GTP (9 h) was 1 IU/L. The TERMINAL_BW (24 h) was 225.2 g, the APTT (24 h) was 16.5 s and the Bas (24 h) was 0%. The Eos (24 h) was 1.6%, the Fbg (24 h) was 229 mg/dL and the Hb (24 h) was 13.9 g/dL. The Ht (24 h) was 41.3%, the Lym (24 h) was 78.2% and the MCH (24 h) was 21.8 pg. The MCHC (24 h) was 33.7%, the MCV (24 h) was 64.8 fL and the Mono (24 h) was 7.8%. For the same compound, the Neu (24 h) was 13%, the PT (24 h) was 12.1 s and the Plat (24 h) was 112.8 x10_4/uL. The RBC (24 h) was 636.8 x10_4/ul, the Ret (24 h) was 7.2% and the WBC (24 h) was 103.7 x10_2/uL. It also gave a KIDNEY_L (24 h) of 1 g, a KIDNEY_R (24 h) of 1 g and a KIDNEY_TOTAL (24 h) of 2 g. It also gave an LIVER (24 h) of 11.3 g, an A/G (24 h) of 2 and an ALP (24 h) of 915.4 IU/L. For the same compound, the ALT (24 h) was 37 IU/L, the AST (24 h) was 62.6 IU/L and the BUN (24 h) was 18.6 mg/dL. The CRE (24 h) was 0.6 mg/dL, the Ca (24 h) was 10.5 mg/dL and the Cl (24 h) was 105.2 meq/L. The DBIL (24 h) was 0.04 mg/dL, the GLC (24 h) was 184.2 mg/dL and the IP (24 h) was 7.8 mg/dL. The K (24 h) was 5.4 meq/L, the LDH (24 h) was 105.4 IU/L and the Na (24 h) was 138.4 meq/L. It also gave a PL (24 h) of 161.2 mg/dL, an RALB (24 h) of 4 g/dL and a TBIL (24 h) of 0.3 mg/dL. For the same compound, the TC (24 h) was 83.2 mg/dL, the TG (24 h) was 131 mg/dL and the TP (24 h) was 6 g/dL. The gamma-GTP (24 h) was 1.4 IU/L.

Source: ChEMBL document CHEMBL3885861, “Open TG-GATES”
